Assays:
NDM-1 = NDM-1 (Klebsiella pneumoniae, UniProt C7C422); test: biochemical; format: biochemical; conditions: CCF2-FA substrate, 2 hours at 25° C; read-out: NDM-1 IC50
Method in brief: (§1)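 Fluorescence assay, CCF2-FA substrate (cephalosporin core linking 7-hydroxycoumarin to fluorescein); inhibitor + MBL + substrate, 2 h, 25° C. IC50 by 4-parameter fit, semi-log plot.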

IMP-1 = IMP-1 (Serratia marcescens, UniProt P52699); test: biochemical; format: biochemical; conditions: CCF2-FA substrate, 2 hours at 25° C; read-out: IMP-1 IC50
Method in brief: as §1

[1] = system: Serratia marcescens expressing IMP-1 (CL5741); format: cell-based; conditions: IMP-1 (CL5741), with imipenem 1 μg/ml, 95% inhibition of bacterial growth
Method in brief: (§2)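 Colonies from overnight 35 °C blood-agar cultures were suspended in saline, diluted 1:100 into 1.1× CAMHB and exposed to test compound with or without imipenem at 1 μg/ml. After 22–24 h at 35 °C, absorbance was read to find the concentration restoring imipenem susceptibility.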

[2] = system: Escherichia coli expressing NDM-1 (CLB30005, CLB30016); format: cell-based; conditions: NDM-1 (CLB30016), with imipenem 1 μg/ml, 95% inhibition of bacterial growth
Method in brief: as §2

[3] = system: Klebsiella pneumoniae expressing VIM-1 (IHMA599644); format: cell-based; conditions: VIM-1 (IHMA599644), with imipenem 1 μg/ml, 95% inhibition of bacterial growth
Method in brief: as §2

[4] = system: P. aeruginosa expressing IMP-1, efflux− (MB9799); test: Efflux: concentration of MBL inhibitor which restores susceptibility to imipenem; format: cell-based, Pseudomonas aeruginosa; conditions: imipenem at 2 μg/mL, in the presence of a class A, C, D serine β-lactamase inhibitor closely related to relebactam
From the text: (§3) The strain background is Pseudomonas aeruginosa PAO1.

VIM-1 = VIM-1 (Pseudomonas aeruginosa (strain ATCC 15692 / DSM 22644 / CIP 104116 / JCM 14847 / LMG 12228 / 1C / PRS 101 / PAO1), UniProt A0A0F7KYQ8); test: biochemical; conditions: CCF2-FA substrate, 2 hours at 25° C
Method in brief: as §1

[5] = system: P. aeruginosa expressing IMP-1, efflux+ (MB9798); format: cell-based, Pseudomonas aeruginosa; conditions: for P. aeruginosa expressing IMP-1, efflux+ (MB9798) MITC95: imipenem at 2 μg/mL, in the presence of a class A, C, D serine β-lactamase inhibitor closely related to relebactam; for Efflux ratio: ratio MITC95 PA_9798/MITC95 PA_9799
From the text: as §3

IMP-1, sequence (P52699 whole entry, looked up, species assumed): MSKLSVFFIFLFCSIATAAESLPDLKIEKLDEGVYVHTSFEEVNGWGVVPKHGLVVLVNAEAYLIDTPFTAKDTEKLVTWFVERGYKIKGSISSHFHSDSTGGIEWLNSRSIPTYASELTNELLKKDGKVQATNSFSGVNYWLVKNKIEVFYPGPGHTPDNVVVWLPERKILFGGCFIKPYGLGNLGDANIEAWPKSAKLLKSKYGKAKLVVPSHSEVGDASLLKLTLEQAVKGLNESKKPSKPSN
NDM-1, sequence (C7C422 whole entry, looked up, species assumed): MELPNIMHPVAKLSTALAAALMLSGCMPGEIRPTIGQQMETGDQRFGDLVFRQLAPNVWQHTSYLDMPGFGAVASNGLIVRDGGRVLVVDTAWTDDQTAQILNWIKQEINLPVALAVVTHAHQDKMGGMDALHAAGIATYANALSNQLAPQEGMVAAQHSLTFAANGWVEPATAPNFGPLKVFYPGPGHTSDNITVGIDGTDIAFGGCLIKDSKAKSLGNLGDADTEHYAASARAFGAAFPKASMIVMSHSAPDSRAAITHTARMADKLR

| Structure (SMILES) | IC50 (NDM-1) [nM] | IC50 (IMP-1) [nM] | Serratia marcescens MITC95 [1] [µM] | Escherichia coli MITC95 [2] [µM] | Klebsiella pneumoniae MITC95 [3] [µM] | P. aeruginosa expressing IMP-1, efflux− (MB9799) MITC95 [4] [µM] | IC50 (VIM-1) [nM] | P. aeruginosa expressing IMP-1, efflux+ (MB9798) MITC95 [5] [µM] | Efflux ratio [5] |
| --- | --- | --- | --- | --- | --- | --- | --- | --- | --- |
| NC[C@H](O)CS(=O)(=O)c1ccc(-c2cccc3[nH]cnc23)c(-c2nn[nH]n2)c1S(N)(=O)=O [Example 353, (S)-6-((3-amino-2-hydroxypropyl)sulfonyl)-3-(1H-benzo[d]imidazol-4-yl)-2-(2H-tetrazol-5-yl) benzenesulfonamide] | 0.185 | 0.392 | 1.563 | 1.563 | 3.125 | 0.7813 | 0.202 | 0.7813 | 1.00 |
| NCCCS(=O)(=O)c1ccc(-c2cccc3[nH]cnc23)c(-c2nn[nH]n2)c1S(N)(=O)=O [Example 354, 6-((3-aminopropyl)sulfonyl)-3-(1H-benzo[d]imidazol-7-yl)-2-(1H-tetrazol-5-yl) benzenesulfonamide] | 0.226 | 0.275 | 0.7813 | 0.7813 | 1.563 | 0.7813 | 0.162 | 0.7813 | 1.00 |
| C[C@H](N)CS(=O)(=O)c1ccc(-c2cccc3[nH]cnc23)c(-c2nn[nH]n2)c1S(N)(=O)=O [Example 355] | 0.165 | 0.327 | 1.563 | 1.563 | 3.125 | 1.563 | 0.165 | 3.125 | 2.00 |
| N[C@H](CO)CS(=O)(=O)c1ccc(-c2cccc3[nH]cnc23)c(-c2nn[nH]n2)c1S(N)(=O)=O [Example 356, (R)-6-((2-amino-3-hydroxypropyl)sulfonyl)-3-(1H-benzo[d]imidazol-4-yl)-2-(2H-tetrazol-5-yl) benzenesulfonamide] | 0.27 | 0.496 | 1.563 | 1.563 | 3.125 | 1.563 | 0.344 | 1.563 | 1.00 |
| N[C@@H](CO)CS(=O)(=O)c1ccc(-c2cccc3[nH]cnc23)c(-c2nn[nH]n2)c1S(N)(=O)=O [Example 357, (S)-6-((2-amino-3-hydroxypropyl)sulfonyl)-3-(1H-benzo[d]imidazol-4-yl)-2-(2H-tetrazol-5-yl) benzenesulfonamide] | 0.163 | 0.294 | 1.563 | 1.563 | 3.125 | 1.563 | 0.249 | 0.7813 | 0.50 |
| NC[C@@H](CO)S(=O)(=O)c1ccc(-c2cccc3nc(N)[nH]c23)c(-c2nn[nH]n2)c1S(N)(=O)=O [Example 358, (S)-3-(2-amino-1H-benzo[d]imidazol-7-yl)-6-((1-amino-3-hydroxypropan-2-yl)sulfonyl)-2-(1H-tetrazol-5-yl) benzenesulfonamide] | 0.221 | 1.15 | 0.7813 | 0.7813 | 1.563 | 0.7813 | 0.789 | 0.7813 | 1.00 |
| C[C@@H](N)CS(=O)(=O)c1ccc(-c2cccc3[nH]cnc23)c(-c2nn[nH]n2)c1S(N)(=O)=O [Example 359] | 0.286 | 0.454 | 1.563 | 1.563 | 1.563 | 0.7813 | 0.316 | 1.563 | 2.00 |
| NC[C@@H](N)CS(=O)(=O)c1ccc(-c2cccc3[nH]c(N)nc23)c(-c2nn[nH]n2)c1S(N)(=O)=O [Example 360, (R)-3-(2-amino-1H-benzo[d]imidazol-4-yl)-6-((2,3-diaminopropyl)sulfonyl)-2-(2H-tetrazol-5-yl) benzenesulfonamide] | 0.0654 | 0.544 | 1.391 | 0.25 | 1.781 | 1.281 | 0.287 | 0.8906 | 0.70 |
| NC[C@@H](O)CS(=O)(=O)c1ccc(-c2cccc3[nH]cnc23)c(-c2nn[nH]n2)c1S(N)(=O)=O [Example 361, (R)-6-((3-amino-2-hydroxypropyl)sulfonyl)-3-(1H-benzo[d]imidazol-4-yl)-2-(2H-tetrazol-5-yl) benzenesulfonamide] | 0.0905 | 0.174 | 0.7813 | 0.7813 | 1.563 | 0.7813 | 0.253 | 0.7813 | 1.00 |
| Cn1c(N)nc2c(-c3ccc(S(=O)(=O)C[C@H](O)CN)c(S(N)(=O)=O)c3-c3nn[nH]n3)cccc21 [Example 362, (R)-3-(2-amino-1-methyl-1H-benzo[d]imidazol-4-yl)-6-((3-amino-2-hydroxypropyl)sulfonyl)-2-(2H-tetrazol-5-yl) benzenesulfonamide] | 0.295 | 0.408 | 0.7813 | 0.3906 | 1.563 | 0.7813 | 0.605 | 0.7813 | 1.00 |
| Cn1c(N)nc2c(-c3ccc(S(=O)(=O)C[C@@H](O)CN)c(S(N)(=O)=O)c3-c3nn[nH]n3)cccc21 [Example 363, (S)-3-(2-amino-1-methyl-1H-benzo[d]imidazol-4-yl)-6-((3-amino-2-hydroxypropyl)sulfonyl)-2-(2H-tetrazol-5-yl) benzenesulfonamide] | 0.275 | 0.425 | 0.7813 | 0.3906 | 1.563 | 0.7813 | 0.356 | 0.7813 | 1.00 |
| NC[C@@H](O)CS(=O)(=O)c1ccc(-c2ccc(N)nc2)c(-c2nn[nH]n2)c1S(N)(=O)=O [Example 364, (R)-6-((3-amino-2-hydroxypropyl)sulfonyl)-3-(6-aminopyridin-3-yl)-2-(2H-tetrazol-5-yl) benzenesulfonamide] | 0.795 | 0.486 | 0.9766 | 0.3418 | 1.563 | 0.7813 | 0.875 | 0.7813 | 1.00 |
| NC[C@H](O)CS(=O)(=O)c1ccc(-c2ccc(N)nc2)c(-c2nn[nH]n2)c1S(N)(=O)=O [Example 365, (S)-6-((3-amino-2-hydroxypropyl)sulfonyl)-3-(6-aminopyridin-3-yl)-2-(2H-tetrazol-5-yl) benzenesulfonamide] | 1.53 | 1.21 | 0.7813 | 0.293 | 2.344 | 0.7813 | 0.632 | 1.172 | 1.50 |
| NC[C@H](O)CS(=O)(=O)c1ccc(-c2cccc(-c3c[nH]c(N)n3)c2)c(-c2nn[nH]n2)c1S(N)(=O)=O [Example 366, (S)-3'-(2-amino-1H-imidazol-4-yl)-4-((3-amino-2-hydroxypropyl)sulfonyl)-2-(2H-tetrazol-5-yl)-[1,1'-biphenyl]-3-sulfonamide] | 0.623 | 1.81 | 1.563 | 0.7813 | 1.563 | 1.563 | 1.17 | 3.125 | 2.00 |

From patent publication US10227331B2 (priority 2015, dated 2019)
